Measured values reported in article PMC10713630, “Elucidation of the structural basis for ligand binding and translocation in conserved insect odorant receptor co-receptors” (Nature Communications, 2023).
Values joined by “and” are separate entries in the source; they are usually repeats but may differ in a detail not shown here. Equal values may be shown once. “Also recorded” adds a separate entry of the source.

Assays:
DmelOrco M210L = DmelOrco M210L (Drosophila melanogaster, UniProt Q9VNB5, M210L); experiment: TEVC recording of VUAA1-induced current, DmelOrco M210L in Xenopus oocytes; assay type: cell-based; conditions: 500 µM VUAA1, TEVC
DmelOrco M210L, sequence (Q9VNB5 whole entry M210L, the tested form may be a part): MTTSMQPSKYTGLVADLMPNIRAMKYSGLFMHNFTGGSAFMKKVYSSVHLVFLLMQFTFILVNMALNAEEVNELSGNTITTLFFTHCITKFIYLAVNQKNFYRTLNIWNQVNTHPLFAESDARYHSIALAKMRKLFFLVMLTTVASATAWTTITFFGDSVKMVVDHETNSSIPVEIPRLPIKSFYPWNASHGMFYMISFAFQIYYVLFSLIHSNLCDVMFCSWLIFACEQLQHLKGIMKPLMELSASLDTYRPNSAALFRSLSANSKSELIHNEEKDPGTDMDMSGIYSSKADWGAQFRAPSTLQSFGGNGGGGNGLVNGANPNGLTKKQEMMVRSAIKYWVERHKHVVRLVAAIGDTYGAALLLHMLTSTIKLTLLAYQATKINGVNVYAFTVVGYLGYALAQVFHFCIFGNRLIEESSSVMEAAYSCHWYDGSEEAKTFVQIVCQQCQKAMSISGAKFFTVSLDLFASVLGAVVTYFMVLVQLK
Description: (§1) All Orco gene sequences were optimized[63] for protein expression in Xenopus laevis oocytes with the GenSmartTM Codon optimization Tool and subcloned into a pGEMHE-derived vector. The wildtype gene of Drosophila melanogaster Orco (DmelOrco) was synthesized by Genscript and subcloned with XmaI/XhoI cloning sites. Site-directed mutagenesis of DmelOrco was done by PCR with the Q5® site directed mutagenesis kit (NEB) using primers optimized with the NEBase Changer online tool and following the supplier’s protocol. After transformation of commercial competent bacteria (XL10 Gold) by standard heat-shock protocol and overnight culture in ampicillin-containing LB plates, positive clones were identified by electrophoretic restriction profile and external sequencing (Genewiz). DNAs of positive clones were amplified with Qiagen MidiPrep Kit and the ORF was fully sequenced. For in vitro transcription, DNAs were linearized with restriction enzyme NotI that cuts a unique site in the 3′ region of the polyA tail. […] DNA and RNA were analyzed by agarose-gel electrophoresis and quantified by spectrophotometry. […]
(§2) Whole cell currents were recorded with the two-electrode voltage-clamp (TEVC) technique with the HiClamp robot (MultiChannel System). […] Data were extracted with M. Vivaudou’s programs[65] and statistically analyzed with Prism 8 (Graphpad).

DmelOrco I181S = DmelOrco I181S (Drosophila melanogaster, UniProt Q9VNB5, I181S); experiment: TEVC recording of VUAA1-induced current, DmelOrco I181S in Xenopus oocytes; assay type: cell-based; parameters: VUAA1-induced current, i181S / VUAA1-induced current, I181S: unit not given here; conditions: for VUAA1-induced current, I181S: Fig.4i dose-response
DmelOrco I181S, sequence (Q9VNB5 whole entry I181S, the tested form may be a part): as the sequence (Q9VNB5 whole entry M210L, the tested form may be a part) above, with I181S, L210M counted along it
Description: (§3) All Orco gene sequences were optimized[63] for protein expression in Xenopus laevis oocytes with the GenSmartTM Codon optimization Tool and subcloned into a pGEMHE-derived vector. The wildtype gene of Drosophila melanogaster Orco (DmelOrco) was synthesized by Genscript and subcloned with XmaI/XhoI cloning sites. Site-directed mutagenesis of DmelOrco was done by PCR with the Q5® site directed mutagenesis kit (NEB) using primers optimized with the NEBase Changer online tool and following the supplier’s protocol. After transformation of commercial competent bacteria (XL10 Gold) by standard heat-shock protocol and overnight culture in ampicillin-containing LB plates, positive clones were identified by electrophoretic restriction profile and external sequencing (Genewiz). DNAs of positive clones were amplified with Qiagen MidiPrep Kit and the ORF was fully sequenced. For in vitro transcription, DNAs were linearized with restriction enzyme NotI that cuts a unique site in the 3′ region of the polyA tail. The linearized DNAs were purified by the standard phenol:chloroform extraction method and transcribed into mRNA using the T7 ultra mMessage mMachine kit (Thermo Fisher Scientific). mRNAs were purified with the NucleoSpin RNA plus XS kit (Machery-Nagel). DNA and RNA were analyzed by agarose-gel electrophoresis and quantified by spectrophotometry.
(§4) Xenopus laevis oocytes were prepared, as previously described. Briefly, oocytes were defolliculated after surgical retrieval by type 1 A collagenase over 2-3 h under smooth horizontal agitation. They were manually selected and incubated at 19 °C in modified-Barth’s solution (1 mM KCl, 0.82 mM MgSO4, 88 mM NaCl, 2.4 mM NaHCO3, 0.41 mM CaCl2, Ca(NO3)2 0.3 mM, 16 mM HEPES, pH 7.4) supplemented with 100 U mL^−1 of penicillin and streptomycin and 0.1 mg mL^−1 of gentamycin. Each oocyte was micro-injected with the Nanoject instrument (Drummond) with 50 nL of 20 ng of mRNA coding for the Orco of interest. Injected oocytes were incubated individually in 96-well plates for 4 days at 19 °C in the same buffer. Different batches of oocytes have been tested per construct. The results of the mutants of interest have been confirmed by a second set of experiments comparing the amplitudes with WT in the same day and from the same batch of oocytes (Supplementary Fig. 11).
(§5) Whole cell currents were recorded with the two-electrode voltage-clamp (TEVC) technique with the HiClamp robot (MultiChannel System). Microelectrodes were filled with 3 M KCl. The high K^+ buffer used for recordings was composed of 91 mM KCl, 1 mM MgCl2, 1.8 mM CaCl2, 5 mM HEPES, pH 7.4. Membrane voltage was clamped to −50 mV and VUAA1 was applied for 60 s. Data were extracted with M. Vivaudou’s programs[65] and statistically analyzed with Prism 8 (Graphpad).

DmelOrco M210W = DmelOrco M210W (Drosophila melanogaster, UniProt Q9VNB5, M210W); experiment: TEVC recording of VUAA1-induced current, DmelOrco M210W in Xenopus oocytes; assay type: cell-based
DmelOrco M210W, sequence (Q9VNB5 whole entry M210W, the tested form may be a part): as the sequence (Q9VNB5 whole entry M210L, the tested form may be a part) above, with L210W counted along it
Description: as §3, §4, §5

DmelOrco S146W = DmelOrco S146W (Drosophila melanogaster, UniProt Q9VNB5, S146W); experiment: TEVC recording of VUAA1-induced current, DmelOrco S146W in Xenopus oocytes; assay type: cell-based; conditions: 500 µM VUAA1, TEVC
DmelOrco S146W, sequence (Q9VNB5 whole entry S146W, the tested form may be a part): as the sequence (Q9VNB5 whole entry M210L, the tested form may be a part) above, with S146W, L210M counted along it
Description: as §1, §2

DmelOrco I181A = DmelOrco I181A (Drosophila melanogaster, UniProt Q9VNB5, I181A); experiment: TEVC recording of VUAA1-induced current, DmelOrco I181A in Xenopus oocytes; assay type: cell-based; parameters: VUAA1-induced current, i181A: unit not given here
DmelOrco I181A, sequence (Q9VNB5 whole entry I181A, the tested form may be a part): as the sequence (Q9VNB5 whole entry M210L, the tested form may be a part) above, with I181A, L210M counted along it
Description: as §1, §2

DmelOrco F83W = DmelOrco F83W (Drosophila melanogaster, UniProt Q9VNB5, F83W); experiment: TEVC recording of VUAA1-induced current, DmelOrco F83W in Xenopus oocytes; assay type: cell-based; conditions: 500 µM VUAA1, TEVC
DmelOrco F83W, sequence (Q9VNB5 whole entry F83W, the tested form may be a part): as the sequence (Q9VNB5 whole entry M210L, the tested form may be a part) above, with F83W, L210M counted along it
Description: as §1, §2

DmelOrco S146V = DmelOrco S146V (Drosophila melanogaster, UniProt Q9VNB5, S146V); experiment: TEVC recording of VUAA1-induced current, DmelOrco S146V in Xenopus oocytes; assay type: cell-based
DmelOrco S146V, sequence (Q9VNB5 whole entry S146V, the tested form may be a part): as the sequence (Q9VNB5 whole entry M210L, the tested form may be a part) above, with S146V, L210M counted along it
Description: as §3
Xenopus laevis oocytes were prepared, as previously described. Briefly, oocytes were defolliculated after surgical retrieval by type 1 A collagenase over 2-3 h under smooth horizontal agitation. They were manually selected and incubated at 19 °C in modified-Barth’s solution (1 mM KCl, 0.82 mM MgSO4, 88 mM NaCl, 2.4 mM NaHCO3, 0.41 mM CaCl2, Ca(NO3)2 0.3 mM, 16 mM HEPES, pH 7.4) supplemented with 100 U mL^−1 of penicillin and streptomycin and 0.1 mg mL^−1 of gentamycin. […]
as §2

DmelOrco K373E = DmelOrco K373E (Drosophila melanogaster, UniProt Q9VNB5, K373E); experiment: TEVC recording of VUAA1-induced current, DmelOrco K373E in Xenopus oocytes; assay type: cell-based; parameters: VUAA1-induced current, K373E: unit not given here
DmelOrco K373E, sequence (Q9VNB5 whole entry K373E, the tested form may be a part): as the sequence (Q9VNB5 whole entry M210L, the tested form may be a part) above, with L210M, K373E counted along it
Description: as §1, §2

DmelOrco I79A = DmelOrco I79A (Drosophila melanogaster, UniProt Q9VNB5, I79A); experiment: TEVC recording of VUAA1-induced current, DmelOrco I79A in Xenopus oocytes; assay type: cell-based; parameters: VUAA1-induced current, i79A: unit not given here
DmelOrco I79A, sequence (Q9VNB5 whole entry I79A, the tested form may be a part): as the sequence (Q9VNB5 whole entry M210L, the tested form may be a part) above, with I79A, L210M counted along it
Description: as §1, §2

DmelOrco F84S = DmelOrco F84S (Drosophila melanogaster, UniProt Q9VNB5, F84S); experiment: TEVC recording of VUAA1-induced current, DmelOrco F84S in Xenopus oocytes; assay type: cell-based; conditions: 500 µM VUAA1, TEVC
DmelOrco F84S, sequence (Q9VNB5 whole entry F84S, the tested form may be a part): as the sequence (Q9VNB5 whole entry M210L, the tested form may be a part) above, with F84S, L210M counted along it
Description: as §1, §2

DmelOrco L141V = DmelOrco L141V (Drosophila melanogaster, UniProt Q9VNB5, L141V); experiment: TEVC recording of VUAA1-induced current, DmelOrco L141V in Xenopus oocytes; assay type: cell-based; conditions: 500 µM VUAA1, TEVC
DmelOrco L141V, sequence (Q9VNB5 whole entry L141V, the tested form may be a part): as the sequence (Q9VNB5 whole entry M210L, the tested form may be a part) above, with L141V, L210M counted along it
Description: as §1, with “sequenced.” for “sequenced. For in vitro transcription, DNAs were linearized with restriction enzyme NotI that cuts a unique site in the 3′ region of the polyA tail.”
Whole cell currents were recorded with the two-electrode voltage-clamp (TEVC) technique with the HiClamp robot (MultiChannel System). […] Data were extracted with M. Vivaudou’s programs[65] and statistically analyzed with Prism 8 (Graphpad). […]
100 by 500 µM of the ligand VUAA1 and measured by TEVC recordings on DmelOrco WT and mutants […]

DmelOrco S146A = DmelOrco S146A (Drosophila melanogaster, UniProt Q9VNB5, S146A); experiment: TEVC recording of VUAA1-induced current, DmelOrco S146A in Xenopus oocytes; assay type: cell-based
DmelOrco S146A, sequence (Q9VNB5 whole entry S146A, the tested form may be a part): as the sequence (Q9VNB5 whole entry M210L, the tested form may be a part) above, with S146A, L210M counted along it
Description: as §1, §2

MdesOrco H81F = conditions: H81 replaced by phenylalanine; cited from earlier work

Question: What does the source list for CCc1ccc(NC(=O)CSc2nnc(-c3cccnc3)n2CC)cc1 [VUAA1, N-(4-ethylphenyl)−2-((4-ethyl-5-(3-pyridinyl)−4H-1,2,4-triazol-3-yl)thio)acetamide]?
Answer: Current induced by VUAA1 (median) (DmelOrco M210L): 6.19 µA; EC50 (DmelOrco I181S): 102 µM; Current induced by VUAA1 (median) (DmelOrco I181S; 500 µM VUAA1, TEVC, I181S): 1.40 µA; Response to VUAA1 compared with WT (DmelOrco I181S; 500 µM VUAA1, TEVC, I181S): clear loss of VUAA1 activation; VUAA1-induced current, i181S (DmelOrco I181S; Fig.4b, individual oocytes): 1.9 and 2 and 1.3 and 0.38 and 0.78 and 1.7 and 1.5 and 2.2 and 2.1 and 1.2 and 1.4 and 0.46 and 1.1 and 1.8 and 2.3; VUAA1-induced current, I181S (DmelOrco I181S; VUAA1 10 µM (Log(M) -5), individual oocytes): 0.26 and 0.25 and 0.11; VUAA1-induced current, I181S (DmelOrco I181S; VUAA1 25 µM (Log(M) -4.6), individual oocytes): 0.22 (2×) and 0.2 and 0.06 and 0.1 and 0.03 and 0.21 and 0.09; VUAA1-induced current, I181S (DmelOrco I181S; VUAA1 50 µM (Log(M) -4.3), individual oocytes): 0.39 and 0.35 and 0.1 and 0.28 and 0.07 and 0.3 and 0.34 and 0.19; VUAA1-induced current, I181S (DmelOrco I181S; VUAA1 100 µM (Log(M) -4), individual oocytes): 1.03 and 0.88 and 0.21 and 0.74 and 0.26 and 0.4 and 0.43 and 0.32; VUAA1-induced current, I181S (DmelOrco I181S; VUAA1 500 µM (Log(M) -3.3), individual oocytes): 1.45 and 1.2 and 0.29 and 2.29 and 0.87 and 0.44 and 0.47 and 0.39; VUAA1-induced current, I181S (DmelOrco I181S; VUAA1 1000 µM (Log(M) -3), individual oocytes): 1.69 and 1.33 and 0.34 and 1.97 and 0.83 and 0.44 and 0.5 and 0.43; Imax (DmelOrco I181S; concentration-effect curve of VUAA1, TEVC, I181S): 0.94 µA; EC50 (DmelOrco M210W): 120 µM; Current induced by VUAA1 (median) (DmelOrco M210W; 500 µM VUAA1, TEVC, M210W): 2.12 µA; Response to VUAA1 compared with WT (DmelOrco M210W; 500 µM VUAA1, TEVC, M210W): significant decrease in the response; Imax (DmelOrco M210W; concentration-effect curve of VUAA1, TEVC, M210W): 1.50 µA; Response to VUAA1 compared with WT (DmelOrco S146W): significant decrease in the response; Response to VUAA1 compared with WT (DmelOrco I181A; 500 µM VUAA1, TEVC, I181A): did not significantly affect the amplitude of activation; VUAA1-induced current, i181A (DmelOrco I181A; Fig.4b, individual oocytes): 2.04 and 7.33 and 5.46 and 2.9 and 2.3 and 1.5 and 5.38 and 11.56 and 4.17 and 3.69; Response to VUAA1 compared with WT (DmelOrco F83W): decreased the response; also recorded: significant decrease in the response; EC50 (DmelOrco S146V): 82.2 µM; Current induced by VUAA1 (median) (DmelOrco S146V; 500 µM VUAA1, TEVC, S146V): 11.68 µA; Imax (DmelOrco S146V; concentration-effect curve of VUAA1, TEVC, S146V): 6.99 µA; Current induced by VUAA1 (median) (DmelOrco K373E; 500 µM VUAA1, TEVC, K373E): 7.47 µA; VUAA1-induced current, K373E (DmelOrco K373E; Fig.4b, individual oocytes): 4.46 and 4.23 and 7.21 and 7.53 and 6.82 and 10.02 and 4.07 and 5.42 and 9.17 and 11.32 and 9.58 and 7.4 and 16.4 and 9.48 and 7.37 and 12.12; Response to VUAA1 compared with WT (DmelOrco I79A; 500 µM VUAA1, TEVC, I79A): did not significantly affect the amplitude of activation; VUAA1-induced current, i79A (DmelOrco I79A; Fig.4b, individual oocytes): 1.26 and 4.71 and 3.65 and 1.07 and 3.06 and 3.49 and 3.19 and 0.68 and 2.72 and 3.85; Response to VUAA1 compared with WT (DmelOrco F84S): decreased the response; Response to VUAA1 compared with WT (DmelOrco L141V): did not induce significant change; Current induced by VUAA1 (median) (DmelOrco S146A; 500 µM VUAA1, TEVC, S146A): 7.55 µA; Effect on VUAA1-induced channel response (DmelOrco S146A; DmelOrco S146A): I; Response of MdesOrco H81F to VUAA1 (MdesOrco H81F): induced a response to VUAA1
